From patent US9309187B2, “EP2 receptor agonists” (TAKEDA GMBH, priority 2012, dated 2016)

What was measured:
[1] = target: T1, human prostanoid receptor EP2 (Homo sapiens, UniProt P43116); test: EP2 cAMP release assay in CHOp6CreLuc-huEP2 cells (CRE-luciferase readout); assay type: cell-based; conditions: CHOp6CreLuc-huEP2 cells, 4 hours at 37° C.; reported as range bins; read-out: EP2 cAMP release assay pEC50 (-log EC50) (converted)
T1 construct: expressed in transfected cells; host or cells: CHO-K1 (CHOp6CreLuc-huEP2)
T1 sequence (P43116 whole entry): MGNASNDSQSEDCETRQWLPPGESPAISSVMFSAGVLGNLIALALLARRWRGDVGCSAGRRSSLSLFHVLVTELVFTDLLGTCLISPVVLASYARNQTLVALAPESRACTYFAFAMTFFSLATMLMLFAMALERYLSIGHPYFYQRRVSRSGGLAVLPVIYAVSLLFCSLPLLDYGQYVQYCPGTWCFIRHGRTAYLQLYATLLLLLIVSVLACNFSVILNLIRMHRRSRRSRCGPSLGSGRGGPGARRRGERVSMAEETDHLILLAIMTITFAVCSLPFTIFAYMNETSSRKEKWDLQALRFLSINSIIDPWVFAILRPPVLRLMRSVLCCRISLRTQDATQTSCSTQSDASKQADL
Method: Method for Measuring cAMP Release in Human EP2 Stably Transfectant Cells:
The potency and efficacy of EP2 agonists have been determined via measuring cAMP release in stably transfectant CHO-K1 cell expressing the human prostanoid receptor EP2 and luciferase enzyme regulated via a 6 times CRE (cAMP response element) containing transcriptional promoter. CHOp6CreLuc-huEP2 cells were seeded into 384-well plate (1000 cells per well) in DMEM/F12 (Dulbecco's Modified Eagle Medium/Nutrient Mixture F12) cell culture medium containing 2% FCS (Fetal Calf Serum) and 500 μg/ml G418 24 hours prior to the experiment. Test compound was added as serial dilutions while keeping the final DMSO concentration constant in each well. […] Cells were incubated together with test compound or butaprost for 4 hours at 37° C. The cAMP release was determined indirectly via luciferase activity that directly correlated to the amount of luciferase enzyme expressed in response to cAMP regulated promoter activity. The luciferase activity was determined by addition of luciferin containing buffer and subsequent quantification of resulting luminescence. Each sample was measured in quadruplicates per experiment and half-maximal effective concentration (EC50) and relative maximal effect compared to butaprost was determined from 3 independent experiments with GraphPad Prism Software. A compound that achieved over 80% of the maximal effect of butaprost was considered as full agonist.
For the following compounds the potency was determined in the cAMP release assay applying human EP2 transfectant CHOp6CreLuc-huEP2 cells. […] The numbers of the compounds correspond to the examples numbers.
EP2 cAMP Release Assay: pEC50

[2] = tested on: TNFalpha release in human peripheral blood mononuclear cells (PBMC) stimulated with LPS; test: Inhibition of LPS induced TNFalpha release in human PBMCs; assay type: cell-based; conditions: 1 ng/mL LPS, 24 hours, reported as range bins, read-out: Inhibition of LPS induced TNFalpha release in human PBMCs pIC30 (-log IC30)
Method: Method for Measuring the Inhibition of TNFalpha Release in Human Peripheral Blood MononuClear Cells (PBMC) Stimulated with LPS:
Assay was performed with some modifications of the method described by Hatzelmann and Schudt (Hatzelmann and Schudt 2001, J. Pharmacol. Exp. Therapeutics 297: 267-279) and the protocol “drawing of venous blood from healthy volunteers for in vitro studies” was approved by the ethics committee of the Landesärztekammer Baden Württemberg in Stuttgart. Peripheral blood mononuclear cells (PBMCs) were isolated from venous blood with the anticoagulant citrate from healthy donors according to standard protocols using Ficoll. The cell layer of PBMCs were washed twice with phosphate buffer solution and equilibrated at room temperature for 60 minutes. 500,000 PBMCs in 180 microL RPMI1640 cell medium supplemented with 10% FCS, NEAA (Non-essential-amino-acids), L-Glutamine and Sodium Pyruvate per sample were pre-incubated with 10 microL of a serial dilution of test compound or piclamilast as positive control for 60 min. at 37° C. After pre-incubation blood samples were stimulated by the addition of 10 microL LPS (Sigma, Aldrich) per sample resulting in a final concentration of 1 ng/mL LPS and a final volume of 200 microL. Cells were incubated for 24 hours at 37° C. TNFalpha levels were determined from cell supernatant that was obtained by a centrifugation step and transferring the supernatant to a new 96-well plate. Content of TNFalpha was determined via alphaLISA Technology according to manufacture protocol (Perkin Elmer).
(§1) PBMC samples that were not stimulated with LPS were used as control and set for 100% inhibition. PBMC samples that were stimulated with LPS and solvent instead of test compound were set as 0% inhibition. Percent inhibition was calculated based on these controls for each sample and since most compounds achieved saturating maximal inhibition of 60% a pIC30 value was calculated with GraphPad Prism Software.
For the following compounds the inhibitory values of TNFalpha release [determined as −log IC30=pIC30] in human PBMCs between 5.0 and 5.9, between 6.0 and 6.9, between 7.0 and 7.9 and between 8.0 and 9.0 have been determined. The numbers of the compounds correspond to the examples numbers.
Inhibition of LPS Induced TNFalpha Release Assay in Human PBMCs: pIC30

human EP2 receptor = target: T2, human EP2 receptor (Homo sapiens, UniProt P43116); test: EP2 binding assay (PGE2 displacement); conditions: recombinant human EP2 membranes, 1 nanoM [3H]-PGE2; reported as range bins; read-out: EP2 binding (PGE2 displacement) pIC50 (-log IC50) (converted)
T2 construct: purchased Millipore
T2 sequence (P43116 whole entry): as above
Method: Method for Measuring Inhibition of PGE2 Binding to the Human Prostanoid Receptor EP2:
Human EP2 receptor equilibrium competition binding assays were performed according to Abramovitz et al. (M. Abramovitz et al. 2000, Biochimica et Biophysica Acta 1483: 285-293) in a final incubation volume of 100 microL in 50 milliM Bis-Tris, pH6.0 in 96-well plates. Radiolabelled Prostaglandin E2 (PGE2) (1 nanoM [^3H]-PGE2 purchased from Perkin Elmer) was added to the assay as competitive ligand. Test compounds stored as Dimethylsulfoxide (DMSO) stock solutions were added to the assay in serial dilutions in assay buffer while keeping the final DMSO concentration equal in each sample. The reaction was initiated by addition of membrane proteins harbouring human EP2 receptor (ChemiSCREEN™ membrane preparation recombinant human EP2 prostanoid receptor that was purchased by Millipore). Total binding was determined in the absence of test compound or PGE2 and non-specific binding was determined in the presence of 1 microM PGE2. Incubations were conducted for 60 minutes at room temperature until equilibrium was reached and terminated by filtration through GF/B filter (Perkin Elmer) prewetted with 0.3% PEI solution. Unbound radiolabelled PGE2 was removed by 8 wash cycles with the same buffer under ice-cold conditions and the filters containing the residual radioactivity were dried for 60 minutes at 60° C. In order to measure the filter bound radioactivity, 40 microL microscint (scintillation liquid) was added to each filter and the chemiluminescence was determined by TopCount-NTX™. The specific binding was calculated by subtracting non-specific binding from each sample. Percent inhibition by test compounds was calculated based on specific binding without test compound. Each sample was measured in triplicates per experiment and for the calculation of the pIC50 at least 2 independent experiments were performed. Determination of half maximal inhibiting concentration (IC50) was performed with GraphPad Prism Software.
The numbers of the compounds correspond to the examples numbers.
EP2 Binding Assay (PGE2 Displacement): pIC50 Values

[3] = tested on: TNFalpha release in human whole blood stimulated with LPS; test: Inhibition of LPS induced TNFalpha release in human whole blood; assay type: cell-based; conditions: 1 microg/mL LPS, 4 hours, reported as range bins, read-out: Inhibition of LPS induced TNFalpha release in human whole blood pIC30 (-log IC30)
Method: Method for Measuring the Inhibition of TNFalpha Release in Human Whole Blood Stimulated with LPS:
Assay was performed with some modifications of the method described by Hatzelmann and Schudt (Hatzelmann and Schudt (2001) JPET 297: 267-279) and the protocol “drawing of venous blood from healthy volunteers for in vitro studies” was approved by the ethics committee of the Landesärztekammer Baden Württemberg in Stuttgart.
Heparinised venous blood was equilibrated to assay conditions for 1 hour at room temperature upon blood drawing. Immediately thereafter, 200 microL whole blood per sample were pre-incubated with 25 microL of a serial dilution of test compound or piclamilast as positive control for 30 min. at 37° C. After pre-incubation blood samples were stimulated by the addition of 25 microL lipopolysaccharide (LPS) (Sigma, Aldrich) per sample resulting in a final concentration of 1 microg/mL LPS and a final volume of 250 microL. Cells were incubated for 4 hours at 37° C. TNFalpha levels were determined from plasma that was obtained by a centrifugation step and transferring the supernatant to a new 96-well plate which was again centrifuged and clear plasma supernatant was used for the measurement of TNFalpha via alphaLISA Technology according to manufacture protocol (Perkin Elmer).
as §1, with “Whole blood” for “PBMC”
For the following compounds the inhibitory values of TNFalpha release [determined as −log IC30=pIC30] in the human whole blood assay between 4.5 and 4.9, between 5.0 and 5.9 and between 6.0 and 6.9 have been determined. The numbers of the compounds correspond to the examples numbers.
Inhibition of LPS Induced TNFalpha Release Assay in Human Whole Blood: pIC30

Row | Compound | EC50 [1] | IC30 [2] | IC50 (human EP2 receptor) | IC30 [3]
1 | O=C(O)/C=C/c1cccc(NC(=O)c2cc(-c3cccc(O)c3)cc3ccccc23)c1 [Example 19, (2E)-3-[3-({[3-(3-hydroxyphenyl)naphthalen-1-yl]carbonyl}amino)phenyl]prop-2-enoic acid] | 0.00631 to 0.1 nM | 12.6 to 100 nM | 1.26 to 10 nM | 126 to 1000 nM
2 | O=C(O)/C=C/c1ccc(F)c(NC(=O)c2cc(N3CCCCC3)cc3ccccc23)c1 [Example 22, (2E)-3-[4-fluoro-3-({[3-(piperidin-1-yl)naphthalen-1-yl]carbonyl}amino)phenyl]prop-2-enoic acid] | 0.126 to 1 nM | 12.6 to 100 nM | 12.6 to 100 nM | 1260 to 10000 nM
